The text below walks through data of US10829466B2, “Stilbene derivative and preparation method thereof” (BEIJING INSTITUTE OF TECHNOLOGY, priority 2015, dated 2020).

SMILES strings stand for the structures. Entries after “also recorded” stand apart in the source; their conditions may differ.

For data set [1], the system named is neurogenesis in rat hippocampus. Put plainly: BrdU and NeuN fluorescence double staining. The format is in vivo. As to the method:
Example 37: Experimental Procedure of BrdU and NeuN Fluorescence Double Staining
The samples are obtained in the same manner as an Example 34. First, the DNA denaturation is performed, and the sections are transferred to a HCl solution perfused with 2 N, and treated at 37° C. for 60 minutes to be denatured. After completion of the denaturation, the brain sections are immersed in a 0.1 M sodium borate (pH 8.5) solution for 5 minutes and rinsed twice; the brain sections are then blocked for 1 hour with a serum blocking solution on a shaker at room temperature, and the serum blocking solution is from the same source as a secondary antibody; the samples are treated on the shaker with BrdU (1:500, Millipore) and NeuN (1:500, Abcam) primary antibodies overnight at 4° C., and the primary antibodies are diluted with the blocking solution; the samples are incubated with fluorescent secondary antibodies goat anti-mouse and goat anti-rabbits at room temperature (1:50, Zhongshanjinqiao) for 2 hours at room temperature in a dark place; the samples are mounted by using a fluorescent anti-quenching PVP mounting medium and then dried, and finally the experimental results are detected under a microscope. Control group and drug group (low dose L, 2 mg/Kg; medium dose M, 4 mg/Kg).

For another data set, the system named is HEK293. Put plainly: In vitro cytotoxicity experiment (MTT, cell survival). The class given is cell-based. Particulars: HEK293, in vitro test, FIG. 3. As for the experimental part: Example 35: In Vitro Cytotoxicity Experiment the Experimental Cell Line is HEK293
Cells are cultured in a 96-well plate at a cell concentration of 5000/well. After 24 hours of cell culture, the drug treatment is performed and the experiment is carried out on two groups: the control group is added with DMSO with the same concentration as that for the experimental group; in the experimental group, each compound is tested at three doses of low, medium and high doses (100 μM; 500 μM; 1000 μM), and five parallels are tested at each dose; in the blank group, a complete medium is added with a compound to be tested with the same concentration as that for the experimental group. Constant temperature incubation is carried out for 24 h in a CO2 incubator, MTT with a final concentration of 0.5 mg/mL is then added; 4 hours later, 200 μL of DMSO solution is added, and the absorbance is measured at 490 nm. The cell survival is calculated according to the absorbance; Survival %=(Average concentration−Blank concentration)/(Average control concentration−Blank concentration)*100%.
Reference is made to FIG. 3 which illustrates an in vitro cytotoxicity test chart of a novel stilbene derivative according to an example of embodiments of the present invention.

Data set [2] concerns neurogenesis in rat hippocampus. The experiment in a line: Detection of neurogenesis in rat hippocampus by BrdU labeling (DAB immunohistochemistry). The class given is in vivo. Particulars: under the test conditions of the embodiments, same dose. The source says:
Example 36: Detection of Neurogenesis in Rat Hippocampus by BrdU (5-Bromo-2-deoxy Uridine, 5-bromodeoxyuridine) Labeling
Experimental animals: 10-week-old SD male rats having a body weight of about 300 g are purchased. The rats are used in experiments one week after being adapted to the environment in an animal room. Experimental groups: control group, drug group. 2-3 rats per group. Experimental reagent: injection oil is used to dissolve a compound to be tested. Rates in the control group are injected with the same dose of dissolving oil.
Test method: intraperitoneal injection is carried out 28 days at the injection dose of 0.5 ml-1 ml each time. Dose: 4 mg/Kg.
1) marker injection: BrdU (dissolved in sterile saline solution at a concentration of 10 mg/mL) solution is injected intraperitoneally into rats. (For rats with different body weights, the injection dose of BrdU is 50 mg·Kg^−1, injection is carried out twice every 2 hour; the intraperitoneal injection 24 hours before anesthesia ends.
2) Anesthesia: Anesthesia is performed by intraperitoneal injection of sodium pentobarbital solution into rats. (For rats with different body weights, the injection dose of sodium pentobarbital is usually 70 mg·Kg^−1.)
3) Cardiac perfusion: cardiac perfusion with normal saline is performed according to a general method.
4) Taking of brain tissues: The heads of the rats are separated from the bodies with surgical forceps and scissors, and then the muscles and membrane tissues at the top of the skulls are removed and brains are then gently peeled from the skulls. The separated brains are soaked in 4% paraformaldehyde for 24-48 hours.
5) Dehydration of brain tissues: the fixed tissues are soaked with a 20% sucrose PBS solution for more than 72 hours, and then the brain tissues are soaked with a 30% sucrose PBS solution for more than 72 hours.
6) Frozen section: the brain tissues are cut into […] thick sections by a general coronal section procedure.
7) DAB immunohistochemistry step: DNA denaturation is carried out and the sections are transferred to a 24-well plate (pH 7.4) perfused with 0.1 M PBS. The brain sections are incubated with 1% H2O2 for 30 minutes to remove […]; the sections are then treated with a 2M HCl solution for 30 minutes at room temperature to denature them. After completion of the denaturation, the brain sections are immersed in a 0.1 M sodium borate (pH 8.5) solution for 5 minutes and rinsed twice; the brain sections are incubated in 0.5% PBST for 1 hour at room temperature, and then are blocked for 1 hour with a serum blocking solution on a shaker at room temperature, and the serum blocking solution is from the same source as a secondary antibody; the samples are treated on the shaker with a BrdU primary antibody overnight at 4° C., and the BrdU primary antibody is diluted with the blocking solution; the samples are incubated with the biotinylated secondary antibody IgG for 2 hours at room temperature; a C (ABC kit) solution is incubated at room temperature for 2 hours; finally, after 3 to 5 minutes of color development by the DAB kit, the samples are mounted by using a PVP mounting medium and then dried, and finally the experimental results are detected under a microscope.
The dose-effect relationships of different compounds is further tested according to the method of Example 36, and the compounds include WS-54 (E-4-isobutyrylamino-3′,4′-methylenedioxy-stilbene), WS-69 (E-4-Methylsulfonamino-3′,4′-methylenedioxy-stilbene), WS-70 (E-4-Benzamino-3′,4′-methylenedioxy-stilbene), and WS-74 (E-4-Cyclopropylformamino-3′,4′-methylenedioxy-stilbene).
(In general: Uptake of a labelled nucleoside into DNA is a usual measure of proliferation.)

As for `CC(=O)Nc1ccc(/C=C/c2ccc3c(c2)OCO3)cc1` [WS-6, E-4-acetylamino-3′,4′-methylenedioxy-stilbene], in data set [1] (4 mg/Kg over 2 mg/Kg), the “dose relationship of NeuN+BrdU+ spots” value is “can further enhance neurogenesis at the dose of 4 mg/Kg over the dose of 2 mg/Kg”. In addition, in data set [1] (low dose 2 mg/Kg and medium dose 4 mg/Kg, FIG. 9), the “BrdU and NeuN double staining: neurogenesis” value is on record as “can promote neurogenesis”. In addition, the “neuronal cytotoxicity / neurotoxicity (in words)” value in the data set on HEK293 is reported as “further reduced in neurotoxicity as compared with WS-61; also recorded: greatly reduced”. Besides, the “neurogenesis activity (in words)” value in data set [2] is “better neurogenesis activity”.
